Reference: US20090105305A1, “Therapeutic Agents - 550” (AstraZeneca AB, priority 2006, published 2009)

Each compound was assayed against T1, human Fatty Acid Synthase (Homo sapiens, UniProt P49327) (assay: Human FAS enzyme assay (decrease in NADPH fluorescence)). Conditions: % inhibition at a concentration of 100 micromolar.
T1 construct: made in house
Format: biochemical
From the text: The compounds of the present invention are Fatty Acid Synthase inhibitors. […] Human and Rat FAS Enzyme Assay.
Fatty acid synthase is an enzyme complex that harbours seven enzymatic activities catalysing the reductive synthesis of long chain fatty acids from acetyl CoA and malonyl CoA to palmitate. When acetyl CoA and malonyl CoA are forming palmitate NADPH is consumed forming NADP. Since NADPH is fluorescent but not NADP the reaction can be measured by analysing the decrease in fluorescence.
Compounds were added to a black 384 well plate (Matrix) in a volume of 5 μl consisting of 20% DMSO and 80% Tris buffer pH 7.5, at a top concentration of 1 mM. NADPH, 30 μl of 166.6 μM, formulated in assay buffer (0.1M Tris ph7.5, 0.1 mM EDTA, 1 mM glutathione, 0.05% BSA), was then added to all of the wells of the plate. Fatty acid synthase Human or rat enzyme (0.4 μg, produced in house), dissolved in 20 mM Tris/HCl pH 7.5, 5 mM BOG, 1 mM TCEP, 10% glycerol, 1 mM EDTA, 150 mM NaCl, was then added to the plate in a volume of […]. Enzyme was added to all but the last two columns of the plate, to which, 10 μl of assay buffer was added (0.1M Tris ph7.5, 0.1 mM EDTA, 1 mM glutathione, 0.05% BSA) to provide a no enzyme assay control. Following a 15-minute incubation period, at room temperature, the plates were read on an Envision plate reader using 340 nm excitation and 460 nm emission filters. This served as a time zero background read. Substrates (an equal mix of both malonyl and acetyl CoA) were then added to the plates in a total volume of 5 μl. The concentrations of malonyl and acetyl CoA in the mixture were 500 μM and 150 μM respectively. Both were prepared as 10 mM stock solutions in distilled water and were subsequently diluted to working concentrations in assay buffer. Plates were then incubated for a further 60 minutes, at room temperature, before being read again on the Envision reader using the same parameters as previously used. The data was analysed by subtracting the background time zero data from that generated following the final 60 minute incubate and the percent inhibition compared to the maximum and minimum assay controls was determined. Sigmoid curves were fitted using Origin 7.5 Client software and IC50 values were determined.

T1 sequence (P49327 whole entry): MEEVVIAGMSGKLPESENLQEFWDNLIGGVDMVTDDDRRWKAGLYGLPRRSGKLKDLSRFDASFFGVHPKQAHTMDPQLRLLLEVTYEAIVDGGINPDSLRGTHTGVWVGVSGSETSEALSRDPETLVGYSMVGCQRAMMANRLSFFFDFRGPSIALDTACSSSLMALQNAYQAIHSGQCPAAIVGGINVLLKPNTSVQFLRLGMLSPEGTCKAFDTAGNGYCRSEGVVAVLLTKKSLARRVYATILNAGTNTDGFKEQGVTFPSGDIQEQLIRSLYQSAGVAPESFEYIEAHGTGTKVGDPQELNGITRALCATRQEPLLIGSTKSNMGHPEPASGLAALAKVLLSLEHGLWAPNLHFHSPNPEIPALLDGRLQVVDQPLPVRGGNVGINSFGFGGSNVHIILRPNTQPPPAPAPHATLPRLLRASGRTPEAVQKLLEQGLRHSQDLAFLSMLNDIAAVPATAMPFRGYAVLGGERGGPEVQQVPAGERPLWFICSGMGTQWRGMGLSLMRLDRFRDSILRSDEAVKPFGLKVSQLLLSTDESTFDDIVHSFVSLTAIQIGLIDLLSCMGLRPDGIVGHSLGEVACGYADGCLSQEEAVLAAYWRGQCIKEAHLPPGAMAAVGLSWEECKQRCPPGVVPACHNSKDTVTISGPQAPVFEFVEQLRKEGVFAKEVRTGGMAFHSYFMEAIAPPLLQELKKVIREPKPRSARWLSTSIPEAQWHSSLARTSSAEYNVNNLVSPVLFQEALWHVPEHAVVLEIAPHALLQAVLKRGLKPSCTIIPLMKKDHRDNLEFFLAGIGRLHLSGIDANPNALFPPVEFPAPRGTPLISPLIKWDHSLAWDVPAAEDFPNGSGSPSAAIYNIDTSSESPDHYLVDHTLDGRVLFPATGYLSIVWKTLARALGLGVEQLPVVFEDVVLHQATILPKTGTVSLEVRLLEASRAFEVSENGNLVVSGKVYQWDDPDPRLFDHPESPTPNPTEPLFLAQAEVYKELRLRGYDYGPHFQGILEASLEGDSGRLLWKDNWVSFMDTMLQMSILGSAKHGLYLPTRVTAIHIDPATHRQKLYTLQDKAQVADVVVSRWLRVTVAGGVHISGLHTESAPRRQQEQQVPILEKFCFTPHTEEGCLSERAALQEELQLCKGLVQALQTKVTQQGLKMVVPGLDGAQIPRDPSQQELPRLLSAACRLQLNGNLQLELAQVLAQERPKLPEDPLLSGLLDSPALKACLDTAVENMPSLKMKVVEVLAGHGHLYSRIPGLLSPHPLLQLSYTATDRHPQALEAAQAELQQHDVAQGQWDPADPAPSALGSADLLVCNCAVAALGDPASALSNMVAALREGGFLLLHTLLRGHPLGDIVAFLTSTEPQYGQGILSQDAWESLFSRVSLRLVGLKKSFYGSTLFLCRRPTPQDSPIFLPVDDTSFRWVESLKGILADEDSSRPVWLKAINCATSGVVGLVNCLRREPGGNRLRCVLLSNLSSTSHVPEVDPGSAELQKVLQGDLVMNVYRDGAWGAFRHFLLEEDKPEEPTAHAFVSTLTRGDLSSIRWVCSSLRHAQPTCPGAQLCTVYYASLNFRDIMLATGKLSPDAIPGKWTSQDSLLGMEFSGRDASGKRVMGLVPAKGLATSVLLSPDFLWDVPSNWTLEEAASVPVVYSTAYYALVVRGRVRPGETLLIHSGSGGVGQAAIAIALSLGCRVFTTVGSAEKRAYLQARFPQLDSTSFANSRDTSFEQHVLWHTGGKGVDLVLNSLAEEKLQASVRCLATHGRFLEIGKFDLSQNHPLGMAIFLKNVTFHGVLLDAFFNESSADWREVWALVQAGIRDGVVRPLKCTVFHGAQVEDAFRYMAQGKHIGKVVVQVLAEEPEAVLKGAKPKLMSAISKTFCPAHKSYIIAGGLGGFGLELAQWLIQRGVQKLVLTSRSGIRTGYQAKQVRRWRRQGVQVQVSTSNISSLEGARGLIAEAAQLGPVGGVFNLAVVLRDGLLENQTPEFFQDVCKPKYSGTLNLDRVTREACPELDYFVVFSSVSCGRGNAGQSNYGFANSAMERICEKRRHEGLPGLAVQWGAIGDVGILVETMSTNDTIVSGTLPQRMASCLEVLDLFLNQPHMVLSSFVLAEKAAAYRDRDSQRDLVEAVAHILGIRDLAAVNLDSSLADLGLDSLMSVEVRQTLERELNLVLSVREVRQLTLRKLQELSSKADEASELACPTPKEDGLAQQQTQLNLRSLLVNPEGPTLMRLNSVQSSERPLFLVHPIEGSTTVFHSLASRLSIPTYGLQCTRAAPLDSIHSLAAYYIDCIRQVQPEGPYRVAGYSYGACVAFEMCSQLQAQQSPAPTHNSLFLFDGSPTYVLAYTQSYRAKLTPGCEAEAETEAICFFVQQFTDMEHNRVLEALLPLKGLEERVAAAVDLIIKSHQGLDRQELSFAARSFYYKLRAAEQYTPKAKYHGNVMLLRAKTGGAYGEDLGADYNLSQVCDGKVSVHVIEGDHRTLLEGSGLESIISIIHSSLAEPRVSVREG

| inhibition at 100 µM [%] | SMILES |
| --- | --- |
| 92 | CCC(C)S(=O)(=O)Nc1cc(C(=O)N2CCC(c3ccc(C#N)cc3)CC2)ccc1C (racemic) [Example 18, (RS)—N-[5-[4-(4-cyanophenyl)piperidine-1-carbonyl]-2-methyl-phenyl]butane-2-sulfonamide] |
| 89 | CCC(C)S(=O)(=O)Nc1ccc(C)c(C(=O)N2CCC(c3ccc(C#N)cc3)CC2)c1 (racemic) [Example 44, (RS) N-[3-[4-(4-cyanophenyl)piperidine-1-carbonyl]-4-methyl-phenyl]butane-2-sulfonamide] |
| 86 | Cc1ccc(C(=O)N2CCC(c3ccc(C#N)cc3)CC2)cc1NS(C)(=O)=O [Example 1, N-(5-(4-(4-cyanophenyl)piperidine-1-carbonyl)-2-methylphenyl)methanesulfonamide] |
| 82 | Cc1ccc(C(=O)N2CCC(c3ccc(C#N)cc3)CC2)cc1NS(=O)(=O)c1ccccc1F [Example 2, N-[5-[4-(4-cyanophenyl)piperidine-1-carbonyl]-2-methyl-phenyl]-2-fluoro-benzenesulfonamide] |
| 96 | Cc1ccc(C(=O)N2CCC(c3ccc(C#N)cc3)CC2)cc1NS(=O)(=O)c1ccc(Cl)cc1 [Example 3, 4-chloro-N-[5-[4-(4-cyanophenyl)piperidine-1-carbonyl]-2-methyl-phenyl]benzenesulfonamide] |
| 81 | Cc1ccc(C(=O)N2CCC(c3ccc(C#N)cc3)CC2)cc1NS(=O)(=O)Cc1ccccc1 [Example 4, N-[5-[4-(4-cyanophenyl)piperidine-1-carbonyl]-2-methyl-phenyl]-1-phenyl-methanesulfonamide] |
| 92 | CCCS(=O)(=O)Nc1cc(C(=O)N2CCC(c3ccc(C#N)cc3)CC2)ccc1C [Example 5, N-[5-[4-(4-cyanophenyl)piperidine-1-carbonyl]-2-methyl-phenyl]propane-1-sulfonamide] |
| 78 | Cc1ccc(NS(C)(=O)=O)cc1C(=O)N1CCC(c2ccc(C#N)cc2)CC1 [Example 7, N-[3-[4-(4-cyanophenyl)piperidine-1-carbonyl]-4-methyl-phenyl]methanesulfonamide] |
| 82 | Cc1ccc(NS(=O)(=O)Cc2ccccc2)cc1C(=O)N1CCC(c2ccc(C#N)cc2)CC1 [Example 8, N-[3-[4-(4-cyanophenyl)piperidine-1-carbonyl]-4-methyl-phenyl]-1-phenyl-methanesulfonamide] |
| 95 | Cc1ccc(C(=O)N2CCC(c3ccc(C#N)cc3)CC2)cc1NS(=O)(=O)CCCCl [Example 9, 3-chloro-N-[5-[4-(4-cyanophenyl)piperidine-1-carbonyl]-2-methyl-phenyl]propane-1-sulfonamide] |
| 78 | Cc1ccc(C(=O)N2CCC(c3ccc(C#N)cc3)CC2)cc1NS(=O)(=O)c1ccccc1 [Example 10, N-[5-[4-(4-cyanophenyl)piperidine-1-carbonyl]-2-methyl-phenyl]benzenesulfonamide] |
| 88 | CCS(=O)(=O)Nc1cc(C(=O)N2CCC(c3ccc(C#N)cc3)CC2)ccc1C [Example 11, N-[5-[4-(4-cyanophenyl)piperidine-1-carbonyl]-2-methyl-phenyl]ethanesulfonamide] |
| 90 | CCCCS(=O)(=O)Nc1cc(C(=O)N2CCC(c3ccc(C#N)cc3)CC2)ccc1C [Example 12, N-[5-[4-(4-cyanophenyl)piperidine-1-carbonyl]-2-methyl-phenyl]butane-1-sulfonamide] |
| 76 | COC(=O)CS(=O)(=O)Nc1cc(C(=O)N2CCC(c3ccc(C#N)cc3)CC2)ccc1C [Example 13, methyl 2-[[5-[4-(4-cyanophenyl)piperidine-1-carbonyl]-2-methyl-phenyl]sulfamoyl]acetate] |
| 89 | Cc1ccc(C(=O)N2CCC(c3ccc(C#N)cc3)CC2)cc1NS(=O)(=O)C1CC1 [Example 14, N-[5-[4-(4-cyanophenyl)piperidine-1-carbonyl]-2-methyl-phenyl]cyclopropanesulfonamide] |

The remaining lines, values behind:

| SMILES | inhibition at 100 µM [%] |
| --- | --- |
| Cc1ccc(C(=O)N2CCC(c3ccc(C#N)cc3)CC2)cc1NS(=O)(=O)CC1(C)NC(=O)NC1=O (stereo in doubt) [Example 147, N-[5-[4-(4-cyanophenyl)piperidine-1-carbonyl]-2-methyl-phenyl]-1-[(4R)-4-methyl-2,5-dioxo-imidazolidin-4-yl]methanesulfonamide] | 98 |
| COc1ccc(C(=O)N2CCC(c3ccc(C#N)cc3)CC2)cc1NS(C)(=O)=O [Example 6, N-[5-[4-(4-cyanophenyl)piperidine-1-carbonyl]-2-methoxy-phenyl]methanesulfonamide] | 75 |

Same assay, conditions: compounds excluded from the claims by proviso

| SMILES | IC50s in the range of about 0.001 μM to about 30 μM |
| --- | --- |
| Cc1ccc(C(=O)N2CCC(c3ccc(CC(=O)N(C)C)cc3)CC2)cc1NS(C)(=O)=O [2-[4-[1-(3-methanesulfonamido-4-methylbenzoyl)piperidin-4-yl]phenyl]-N,N-dimethylacetamide] | do not have IC50s in the range of about 0.001 μM to about 30 μM |
| Cc1ccc(C(=O)N2CCC(c3ccc(CC(N)=O)cc3)CC2)cc1NS(C)(=O)=O [2-[4-[1-(3-methanesulfonamido-4-methylbenzoyl)piperidin-4-yl]phenyl]acetamide] | do not have IC50s in the range of about 0.001 μM to about 30 μM |
| Cc1ccc(C(=O)N2CCC(c3ccc(CC(=O)O)cc3)CC2)cc1NS(C)(=O)=O [2-[4-[1-(3-methanesulfonamido-4-methylbenzoyl)piperidin-4-yl]phenyl]acetic acid] | do not have IC50s in the range of about 0.001 μM to about 30 μM |
| Cc1ccc(C(=O)N2CCC(c3ccc(CC(=O)O)cc3)CC2)cc1NS(=O)(=O)C1CCCCC1 [2-[4-[1-[3-(cyclohexylsulfonylamino)-4-methylbenzoyl]piperidin-4-yl]phenyl]acetic acid] | do not have IC50s in the range of about 0.001 μM to about 30 μM |
| COc1ccc(CNC(=O)c2ccccc2S(=O)(=O)Nc2cc(C(=O)N3CCC(c4ccc(C#N)cc4)CC3)ccc2C)c(OC)c1 [2-[[5-[4-(4-cyanophenyl)piperidine-1-carbonyl]-2-methylphenyl]sulfamoyl]-N-[(2,4-dimethoxyphenyl)methyl]benzamide] | do not have IC50s in the range of about 0.001 μM to about 30 μM |
| CNC(=O)c1ccccc1S(=O)(=O)Nc1cc(C(=O)N2CCC(c3ccc(C#N)cc3)CC2)ccc1C [2-[[5-[4-(4-cyanophenyl)piperidine-1-carbonyl]-2-methylphenyl]sulfamoyl]-N-methylbenzamide] | do not have IC50s in the range of about 0.001 μM to about 30 μM |
| Cc1ccc(C(=O)N2CCC(c3ccc(C#N)cc3)CC2)cc1NS(=O)(=O)c1ccccc1C(=O)O [2-[[5-[4-(4-cyanophenyl)piperidine-1-carbonyl]-2-methylphenyl]sulfamoyl]benzoic acid] | do not have IC50s in the range of about 0.001 μM to about 30 μM |
| Cc1ccc(C(=O)N2CCC(c3ccc(CNC(=O)C(C)(C)O)cc3)CC2)cc1NS(C)(=O)=O [2-hydroxy-N-[[4-[1-(3-methanesulfonamido-4-methylbenzoyl)piperidin-4-yl]phenyl]methyl]-2-methylpropanamide] | do not have IC50s in the range of about 0.001 μM to about 30 μM |
| Cc1ccc(C(=O)N2CCC(c3ccc(C(=O)N(C)C)cc3)CC2)cc1NS(C)(=O)=O [4-[1-(3-methanesulfonamido-4-methylbenzoyl)piperidin-4-yl]-N,N-dimethylbenzamide] | do not have IC50s in the range of about 0.001 μM to about 30 μM |
| Cc1ccc(C(=O)N2CCC(c3ccc(S(=O)(=O)N(C)C)cc3)CC2)cc1NS(C)(=O)=O [4-[1-(3-methanesulfonamido-4-methylbenzoyl)piperidin-4-yl]-N,N-dimethylbenzenesulfonamide] | do not have IC50s in the range of about 0.001 μM to about 30 μM |
| Cc1ccc(C(=O)N2CCC(c3ccccc3)CC2)cc1NS(=O)(=O)c1ccc(Cl)cc1 [4-chloro-N-[2-methyl-5-(4-phenylpiperidine-1-carbonyl)phenyl]benzenesulfonamide] | do not have IC50s in the range of about 0.001 μM to about 30 μM |
| Cc1ccc(C(=O)N2CCC(c3ccc(C#N)cc3)CC2)cc1NS(=O)(=O)C1CCN(C(=O)OCc2ccccc2)C1 (centres unmarked) [Benzyl 3-[[5-[4-(4-cyanophenyl)piperidine-1-carbonyl]-2-methylphenyl]sulfamoyl]pyrrolidine-1-carboxylate] | do not have IC50s in the range of about 0.001 μM to about 30 μM |
